One experiment concerns the target Human M3 receptor (Homo sapiens, UniProt P20309). As to conditions: read-out: M3 binding affinity.
In the next experiment the target is Human β2 adrenoceptor (Homo sapiens, UniProt P07550). The note with it: read-out: B2 binding affinity.
Chain of Human β2 adrenoceptor (P07550 whole entry): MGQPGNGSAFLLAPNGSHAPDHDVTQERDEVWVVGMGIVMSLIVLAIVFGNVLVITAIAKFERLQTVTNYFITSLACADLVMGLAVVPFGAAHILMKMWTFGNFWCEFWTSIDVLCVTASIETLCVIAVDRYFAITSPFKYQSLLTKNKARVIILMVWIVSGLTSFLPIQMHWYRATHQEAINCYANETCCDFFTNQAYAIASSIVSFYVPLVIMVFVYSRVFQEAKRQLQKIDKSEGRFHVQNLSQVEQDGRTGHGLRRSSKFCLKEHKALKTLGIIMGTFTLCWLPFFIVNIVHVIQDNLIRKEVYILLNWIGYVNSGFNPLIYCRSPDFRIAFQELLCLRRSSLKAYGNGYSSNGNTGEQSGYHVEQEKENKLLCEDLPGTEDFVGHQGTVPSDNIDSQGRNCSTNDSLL

Chain of Human M3 receptor (P20309 whole entry): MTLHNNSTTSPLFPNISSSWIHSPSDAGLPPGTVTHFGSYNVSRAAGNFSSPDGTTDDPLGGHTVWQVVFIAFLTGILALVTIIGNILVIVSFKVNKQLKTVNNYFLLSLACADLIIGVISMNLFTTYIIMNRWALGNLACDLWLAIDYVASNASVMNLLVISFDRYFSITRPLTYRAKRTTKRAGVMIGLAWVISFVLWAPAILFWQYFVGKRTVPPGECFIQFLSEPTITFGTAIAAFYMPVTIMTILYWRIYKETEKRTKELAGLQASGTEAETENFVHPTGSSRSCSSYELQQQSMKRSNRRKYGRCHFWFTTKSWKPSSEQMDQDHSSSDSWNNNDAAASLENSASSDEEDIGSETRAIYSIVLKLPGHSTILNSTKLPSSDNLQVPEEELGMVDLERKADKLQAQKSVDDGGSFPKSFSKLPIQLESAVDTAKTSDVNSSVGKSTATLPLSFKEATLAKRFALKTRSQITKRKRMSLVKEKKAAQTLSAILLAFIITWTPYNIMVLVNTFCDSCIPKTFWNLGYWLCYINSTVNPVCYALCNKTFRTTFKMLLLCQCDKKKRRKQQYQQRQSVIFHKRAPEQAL

In the case of `COc1cc(C(=O)N2CCC3(CCN(C(=O)COc4cccc([C@](O)(C(=O)OCC5CCN(Cc6ccccc6)CC5)c5ccccc5)c4)CC3)CC2)ccc1CNC[C@H](O)c1ccc(O)c2[nH]c(=O)ccc12` [Compound 79, (1-benzylpiperidin-4-yl)methyl (S)-2-hydroxy-2-(3-(2-(9-(4-((((R)-2-hydroxy-2-(8-hydroxy-2-oxo-1,2-dihydroquinolin-5-yl)ethyl)amino)methyl)-3-methoxybenzoyl)-3,9-diazaspiro[5.5]undecan-3-yl)-2-oxoethoxy)phenyl)-2-phenylacetate], the IC50 at Human M3 receptor and on Human β2 adrenoceptor was below 0.3 nM each time.

In the case of `O=C(OCC1CCN(Cc2ccccc2)CC1)[C@@](O)(c1ccccc1)c1cccc(OCCCCCNC[C@H](O)c2ccc(O)c3[nH]c(=O)ccc23)c1` [Compound 14, (R)-(1-benzylpiperidin-4-yl)methyl 2-hydroxy-2-(3-((5-(((R)-2-hydroxy-2-(8-hydroxy-2-oxo-1,2-dihydroquinolin-5-yl)ethyl)amino)pentyl)oxy)phenyl)-2-phenylacetate], the IC50 at Human M3 receptor is above 3 nM; at Human β2 adrenoceptor it was below 0.3 nM.

Take `COc1cc(C(=O)NCCCOc2cccc([C@](O)(C(=O)OCC3CCN(Cc4ccccc4)CC3)c3ccccc3)c2)c(Cl)cc1CNC[C@H](O)c1ccc(O)c2[nH]c(=O)ccc12` [Compound 32J, (S)-(1-benzylpiperidin-4-yl)methyl 2-(3-(3-(2-chloro-4-((((R)-2-hydroxy-2-(8-hydroxy-2-oxo-1,2-dihydroquinolin-5-yl)ethyl)amino)methyl)-5-methoxybenzamido)propoxy)phenyl)-2-hydroxy-2-phenylacetate]: the IC50 is 0.3 to 3 nM at Human M3 receptor and below 0.3 nM on Human β2 adrenoceptor.

`O=C(COc1cccc([C@](O)(C(=O)OCC2CCN(Cc3ccccc3)CC2)c2ccccc2)c1)N[C@H]1C[C@H](NC(=O)c2ccc(CNC[C@H](O)c3ccc(O)c4[nH]c(=O)ccc34)nc2)C1` [Compound 145, (1-benzylpiperidin-4-yl)methyl (S)-2-hydroxy-2-(3-(2-(((1R,3S)-3-(6-((((R)-2-hydroxy-2-(8-hydroxy-2-oxo-1,2-dihydroquinolin-5-yl)ethyl)amino)methyl)nicotinamido)cyclobutyl)amino)-2-oxoethoxy)phenyl)-2-phenylacetate]: the IC50 at Human M3 receptor and on Human β2 adrenoceptor was 0.3 to 3 nM each time.

With `O=C(COc1cccc([C@](O)(C(=O)OCC2CCN(Cc3ccccc3)CC2)c2ccccc2)c1)N[C@@H]1CCN(C(=O)c2ccc(CNC[C@H](O)c3ccc(O)c4[nH]c(=O)ccc34)cc2)C1` [Compound 68, (1-benzylpiperidin-4-yl)methyl (S)-2-hydroxy-2-(3-(2-(((R)-1-(4-((((R)-2-hydroxy-2-(8-hydroxy-2-oxo-1,2-dihydroquinolin-5-yl)ethyl)amino)methyl)benzoyl)pyrrolidin-3-yl)amino)-2-oxoethoxy)phenyl)-2-phenylacetate], the IC50 on Human M3 receptor and on Human β2 adrenoceptor was 0.3 to 3 nM throughout.

Regarding `COc1cc(CNC[C@H](O)c2ccc(O)c3[nH]c(=O)ccc23)ccc1C(=O)N1CC(NC(=O)COc2cccc([C@](O)(C(=O)OCC3CCN(Cc4ccccc4)CC3)c3ccccc3)c2)C1` [Compound 82, (1-benzylpiperidin-4-yl)methyl (S)-2-hydroxy-2-(3-(2-((1-(4-((((R)-2-hydroxy-2-(8-hydroxy-2-oxo-1,2-dihydroquinolin-5-yl)ethyl)amino)methyl)-2-methoxybenzoyl)azetidin-3-yl)amino)-2-oxoethoxy)phenyl)-2-phenylacetate], the IC50 at Human M3 receptor and on Human β2 adrenoceptor was 0.3 to 3 nM in each case.

As to `O=C(COc1cccc([C@](O)(C(=O)OCC2CCN(Cc3ccccc3)CC2)c2ccccc2)c1)N[C@H]1C[C@H](NC(=O)c2ccc(CNC[C@H](O)c3ccc(O)c4[nH]c(=O)ccc34)c(OC(F)(F)F)c2)C1` [Compound 141, (1-benzylpiperidin-4-yl)methyl (S)-2-hydroxy-2-(3-(2-(((1R,3S)-3-(4-((((R)-2-hydroxy-2-(8-hydroxy-2-oxo-1,2-dihydroquinolin-5-yl)ethyl)amino)methyl)-3-(trifluoromethoxy)benzamido)cyclobutyl)amino)-2-oxoethoxy)phenyl)-2-phenylacetate], the IC50 on Human M3 receptor and at Human β2 adrenoceptor was 0.3 to 3 nM in each case.

With `O=C(NCCCOc1cccc([C@](O)(C(=O)OCC2CCN(Cc3ccccc3)CC2)c2ccccc2)c1)c1ccc(CCNC[C@H](O)c2ccc(O)c3[nH]c(=O)ccc23)cc1` [Compound 37, (S)-(1-benzylpiperidin-4-yl)methyl 2-hydroxy-2-(3-(3-(4-(2-(((R)-2-hydroxy-2-(8-hydroxy-2-oxo-1,2-dihydroquinolin-5-yl)ethyl)amino)ethyl)benzamido)propoxy)phenyl)-2-phenylacetate], the IC50 on Human M3 receptor and on Human β2 adrenoceptor was below 0.3 nM throughout.

As to `COc1cc(C(=O)NCC2CCN(C(=O)COc3cccc([C@](O)(C(=O)OCC4CCN(Cc5ccccc5)CC4)c4ccccc4)c3)CC2)ccc1CNC[C@H](O)c1ccc(O)c2[nH]c(=O)ccc12` [Compound 80, (1-benzylpiperidin-4-yl)methyl (S)-2-hydroxy-2-(3-(2-(4-((4-((((R)-2-hydroxy-2-(8-hydroxy-2-oxo-1,2-dihydroquinolin-5-yl)ethyl)amino)methyl)-3-methoxybenzamido)methyl)piperidin-1-yl)-2-oxoethoxy)phenyl)-2-phenylacetate], the IC50 is 0.3 to 3 nM at Human M3 receptor and below 0.3 nM at Human β2 adrenoceptor.

In the case of `O=C(NCCCNC[C@H](O)c1ccc(O)c2[nH]c(=O)ccc12)c1ccc(COc2cccc([C@@](O)(C(=O)OCC3CCN(Cc4ccccc4)CC3)c3ccccc3)c2)cc1` [Compound 44, (R)-(1-Benzylpiperidin-4-yl)methyl 2-hydroxy-2-(3-((4-((3-(((R)-2-hydroxy-2-(8-hydroxy-2-oxo-1,2-dihydroquinolin-5-yl)ethyl)amino)propyl)carbamoyl)benzyl)oxy)phenyl)-2-phenylacetate], the values for the IC50 on Human M3 receptor and on Human β2 adrenoceptor were 0.3 to 3 nM and below 0.3 nM, respectively.

Regarding `COc1cc(CNC[C@H](O)c2ccc(O)c3[nH]c(=O)ccc23)ccc1C(=O)NCC(=O)N1CCC(COc2cccc([C@](O)(C(=O)OCC3CCN(Cc4ccccc4)CC3)c3ccccc3)c2)CC1` [Compound 155, (1-benzylpiperidin-4-yl)methyl (S)-2-hydroxy-2-(3-((1-((4-((((R)-2-hydroxy-2-(8-hydroxy-2-oxo-1,2-dihydroquinolin-5-yl)ethyl)amino)methyl)-2-methoxybenzoyl)glycyl)piperidin-4-yl)methoxy)phenyl)-2-phenylacetate], the IC50 at Human M3 receptor was 0.3 to 3 nM; at Human β2 adrenoceptor, below 0.3 nM.

Turning to `O=C(NCCc1cccc(C(O)(C(=O)OCC2CCN(Cc3ccccc3)CC2)c2ccccc2)c1)c1ccc(CCNC[C@H](O)c2ccc(O)c3[nH]c(=O)ccc23)cc1` (stereo partly drawn) [Compound 40, (1-benzylpiperidin-4-yl)methyl 2-hydroxy-2-(3-(2-(4-(2-(((R)-2-hydroxy-2-(8-hydroxy-2-oxo-1,2-dihydroquinolin-5-yl)ethyl)amino)ethyl)benzamido)ethyl)phenyl)-2-phenylacetate], the IC50 on Human M3 receptor and at Human β2 adrenoceptor was 0.3 to 3 nM each time.

The values are drawn from US9579314B2 (priority 2015, dated 2017).
